{
  "source": "patent US6761913B2",
  "about": "“Extracts of celery seed for the prevention and treatment of pain, inflammation and gastrointestinal irritation” (priority 1998, dated 2004)",
  "key": {"[1]": {"system": "adjuvant-induced arthritis", "experiment": "Experimental (adjuvant-induced) polyarthritis in rats, treatment of established arthritis", "type": "in vivo, rat", "conditions": "for Mean % Inhibition of Arthritis Score / Mean % Inhibition of Fore Paw Swelling / Mean % Inhibition of Rear Paw Swelling: per os, mg/kg per day: A-CSE 350, S-CSE 50, Aspirin 150 × 2, Ibuprofen 50, Naproxen 25; for Mean % Inhibition of Arthritis Score: days 10-13, day 14, independent observer; for Mean % Inhibition of Fore Paw Swelling / Mean % Inhibition of Rear Paw Swelling: days 10-13, measured day 14; for anti-inflammatory activity: tested at 50 mg/kg"}, "[2]": {"system": "NSAID-induced gastric lesions", "experiment": "Gastric injury caused by aspirin/NSAIDs in pre-sensitised (pre-inflamed) rats, gastroprotection assay", "conditions": "for incidence of gastric lesions and bleeding: pre-inflamed rats, aspirin 100 mg/kg, Naproxen 10 mg/kg, Ketoprofen 5 mg/kg orally, Piroxicam 5 mg/kg intraperitoneally", "description": "This model comprises oral or parenteral non-steroidal anti-inflammatory drugs (NSAIDs) given to rats whose gastrointestinal mucosa is pre-sensitized by prior development of arthritis or oleyl alcohol-induced inflammation. The animals are pre-sensitized by injection of an arthritogenic adjuvant or 0.1 ml oleyl alcohol 5 days prior to the assay.\nThe disease stress was induced five days previously either by injecting an arthritigenic adjuvant or 0.1 ml oleyl alcohol into the tail base to incite severe local inflammation. […] A-CSE or S-CSE was given orally within 20 seconds of the aspirin/NSAID. The number (N) and severity (S, graded on a score of 0 to 4 based on increasing area of injury) of gastric lesions as well as the percentage incidence of animals (%I) with gastric damage was recorded. The lesion index (LI) was then calculated as: LI=N/n+S/n+%I/10, where n=number of animals per group.\nGastroprotective activity was assessed in fasted (overnight) arthritic rats challenged with 50 mg/kg Ibuprofen given orally to induce gastric bleeding. Test preparations, dispersed with Tween-20, were given orally 20 seconds prior to Ibuprofen.\nThe procedure is further elaborated in K. Rainsford and M. Whitehouse [J. Pharm."}, "[3]": {"system": "adjuvant arthritis (onset)", "experiment": "Arthritis-ablating activity: test material incorporated into the arthritigenic adjuvant", "type": "in vivo, female Dark Agouti rats", "conditions": "for activity in preventing (ablating) adjuvant arthritis: summary of Table 3; for effect on arthritis score (AS): most tested at 10 mg/rat, no effect = AS 2.5+"}, "[4]": {"system": "carrageenan-induced paw edema", "experiment": "Carrageenan-induced paw edema (acute inflammation)", "type": "in vivo, rat", "conditions": "for ED50: Rattus norvegicus, oral, 45 minutes before carrageenan, read-out: effective dose for 50 percent reduction of the paw edema (ED50)", "description": "To evaluate early i.e. rapid-acting therapeutic efficacy, carrageenan (1 mg in 0.1 ml saline) was injected into rear paws of rats to elicit a rapid onset (acute) inflammation. The ensuing paw edema was measured by the increase in paw thickness with a micrometer over the subsequent three hour period at hourly intervals.\nThe test drug formulations were given orally 45 minutes before injecting the carrageenan."}, "[5]": {"system": "production of prostaglandin E2", "experiment": "Production of prostaglandin E2 by pig gastric (fundic) mucosal explants", "type": "cell-based", "conditions": "10 μmol/L, pure samples"}, "[6]": {"system": "adjuvant arthritis (onset)", "conditions": "Haynes D R et al. Inflamm Res 45:159-165, 1996; cited from earlier work"}},
  "data": [
    {"smiles": "CC(=O)Oc1ccccc1C(=O)O", "note": "[Aspirin]", "values": [
      {"measurement": "Mean % Inhibition of Arthritis Score", "setting": "[1]", "result": 25, "unit": "%"},
      {"measurement": "Mean % Inhibition of Fore Paw Swelling", "setting": "[1]", "result": 24, "unit": "%"},
      {"measurement": "Mean % Inhibition of Rear Paw Swelling", "setting": "[1]", "result": 40, "unit": "%"},
      {"measurement": "incidence of gastric lesions and bleeding", "setting": "[2]", "result": 90, "unit": "%"},
      {"measurement": "activity in preventing (ablating) adjuvant arthritis", "setting": "[3]", "result": "not shared"},
      {"measurement": "ED50", "setting": "[4]", "result": 200, "unit": "mg/kg"}
    ]},
    {"smiles": "COc1c2ccoc2cc2oc(=O)ccc12", "note": "[Bergapten]", "values": [
      {"measurement": "activity in preventing (ablating) adjuvant arthritis", "setting": "[3]", "result": "without such activity"}
    ]},
    {"smiles": "CCCCC1OC(=O)c2ccccc21", "note": "(stereo not shown) [Butylphthalide]", "values": [
      {"measurement": "anti-inflammatory activity", "setting": "[1]", "result": "no anti-inflammatory or gastroprotective activity"},
      {"measurement": "gastroprotective activity", "setting": "[2]; tested at 50 mg/kg", "result": "no anti-inflammatory or gastroprotective activity"},
      {"measurement": "activity in preventing (ablating) adjuvant arthritis", "setting": "[3]", "result": "without such activity"}
    ]},
    {"smiles": "CC(C)Cc1ccc(C(C)C(=O)O)cc1", "note": "(stereo not shown) [Ibuprofen]", "values": [
      {"measurement": "suppression of arthritic paw swelling / inhibition of polyarthritis", "setting": "[1]; four successive oral doses, Ibuprofen 30 mg/kg, A-CSE 50 mg/kg, S-CSE 5 mg/kg", "result": 38, "unit": "%"},
      {"measurement": "Mean % Inhibition of Arthritis Score", "setting": "[1]", "result": 36, "unit": "%"},
      {"measurement": "Mean % Inhibition of Fore Paw Swelling", "setting": "[1]", "result": 39, "unit": "%"},
      {"measurement": "Mean % Inhibition of Rear Paw Swelling", "setting": "[1]", "result": 38, "unit": "%"},
      {"measurement": "mean number of haemorrhagic lesions (+/−SD)", "setting": "[2]; 50 mg/kg, free acid or Nurofen, suspension 5 ml/kg, pre-inflamed female Wistar rats, n=90", "result": "42+/−06"},
      {"measurement": "animals with no macroscopically detectable gastric bleeding", "setting": "[2]; Ibuprofen 50 mg/kg with no celery (n=90 rats) or with celery extracts (n=67 rats)", "result": 7, "unit": "%"},
      {"measurement": "activity in preventing (ablating) adjuvant arthritis", "setting": "[3]", "result": "not shared"},
      {"measurement": "inhibition of paw swelling", "setting": "[4]; Ibuprofen 15 mg/kg, Ketoprofen 1 mg/kg, alone, n=6, not statistically significant", "result": 19, "unit": "%"},
      {"measurement": "ED50", "setting": "[4]", "result": 45, "unit": "mg/kg"}
    ]},
    {"smiles": "C=C(C)[C@H]1CC=C(C)CC1", "note": "[Limonene]", "values": [
      {"measurement": "anti-inflammatory activity", "setting": "[1]", "result": "no anti-inflammatory or gastroprotective activity"},
      {"measurement": "activity in preventing (ablating) adjuvant arthritis", "setting": "[3]", "result": "without such activity"},
      {"measurement": "effect on production of prostaglandin E2", "setting": "[5]", "result": "not"}
    ]},
    {"smiles": "COc1ccc2cc([C@H](C)C(=O)O)ccc2c1", "note": "[Naproxen]", "values": [
      {"measurement": "Mean % Inhibition of Arthritis Score", "setting": "[1]", "result": 64, "unit": "%"},
      {"measurement": "Mean % Inhibition of Fore Paw Swelling", "setting": "[1]", "result": 36, "unit": "%"},
      {"measurement": "Mean % Inhibition of Rear Paw Swelling", "setting": "[1]", "result": 57, "unit": "%"},
      {"measurement": "activity in preventing (ablating) adjuvant arthritis", "setting": "[3]", "result": "not shared"}
    ]},
    {"smiles": "CCCCCCCCCCC/C=C\\CCCCC(=O)OC", "note": "[Petroselenic acid methyl ester]", "values": [
      {"measurement": "activity in preventing (ablating) adjuvant arthritis", "setting": "[3]", "result": "without such activity"}
    ]},
    {"smiles": "CN1C(C(=O)Nc2ccccn2)=C(O)c2ccccc2S1(=O)=O", "note": "[Piroxicam]", "values": [
      {"measurement": "incidence of gastric lesions and bleeding", "setting": "[2]", "result": 90, "unit": "%"}
    ]},
    {"smiles": "Cn1cnc([N+](=O)[O-])c1Sc1ncnc2nc[nH]c12", "note": "[azathioprine]", "values": [
      {"measurement": "effect on arthritis score (AS)", "setting": "[3]", "result": "no effect"}
    ]},
    {"smiles": "O=C(O)CCCc1ccc(N(CCCl)CCCl)cc1", "note": "[chlorambucil]", "values": [
      {"measurement": "effect on arthritis score (AS)", "setting": "[3]", "result": "no effect"}
    ]},
    {"smiles": "Nc1ccc(S(=O)(=O)c2ccc(N)cc2)cc1", "note": "[dapsone]", "values": [
      {"measurement": "effect on arthritis score (AS)", "setting": "[3]", "result": "no effect"}
    ]},
    {"smiles": "O=C(O)c1ccccc1Nc1cc(Cl)ccc1C(=O)O", "note": "[lobenzarit]", "values": [
      {"measurement": "ablating the onset of arthritis", "setting": "[6]", "result": "capable of ablating the onset of arthritis"}
    ]},
    {"smiles": "O=c1c(O)c(-c2cc(O)c(O)c(O)c2)oc2cc(O)cc(O)c12", "note": "[myricetin]", "values": [
      {"measurement": "effect on production of prostaglandin E2", "setting": "[5]", "result": "inhibited"}
    ]},
    {"smiles": "O=c1c(O)c(-c2ccc(O)c(O)c2)oc2cc(O)cc(O)c12", "note": "[quercetin]", "values": [
      {"measurement": "effect on production of prostaglandin E2", "setting": "[5]", "result": "inhibited"}
    ]}
  ]
}
